Measured values as given in ChEMBL document CHEMBL4665641, “Lead optimization and efficacy evaluation of quinazoline-based BET family inhibitors for potential treatment of cancer and inflammatory diseases” (Bioorg Med Chem Lett, 2019).

Key:
[1] = Plasma clearance in CD-1 mouse at 2 mg/kg, iv; type: ADME, organism-based
[2] = Oral bioavailability in CD-1 mouse at 10 mg/kg; type: ADME, organism-based; conditions: CD-1, mouse, in vivo
[3] = biological target: T1, Bromodomain-containing protein 4 (Homo sapiens, UniProt O60885); assay: Competitive binding affinity to human partial length BRD4 (BD1,2) (N44 to E460 residues) expressed in bacterial expression system by BROMOscan assay
[4] = tested on: MV4-11; assay: Cytotoxicity against human MV4-11 cells assessed as inhibition of cell viability; type: functional, cell-based
[5] = Half life in CD-1 mouse at 2 mg/kg, iv; type: ADME, organism-based; conditions: in vivo
[6] = Half life in CD-1 mouse at 10 mg/kg, po; type: ADME, organism-based; conditions: in vivo
[7] = Cmax in CD-1 mouse at 2 mg/kg, iv measured after 5 mins; type: ADME, organism-based; design: route intravenous, dose 2 mg/kg; conditions: in vivo
[8] = Cmax in CD-1 mouse at 10 mg/kg, po; type: ADME, organism-based; design: route oral, dose 10 mg/kg; conditions: CD-1, mouse, in vivo, read-out: Cmax
[9] = AUC(0 to infinity) in CD-1 mouse at 2 mg/kg, iv; type: ADME, organism-based; design: time infinity, route intravenous, dose 2 mg/kg; conditions: CD-1, mouse, in vivo
[10] = AUC(0 to infinity) in CD-1 mouse at 10 mg/kg, po; type: ADME, organism-based; design: route oral, time infinity, dose 10 mg/kg; conditions: in vivo; for AUC(0-inf): CD-1, mouse
[11] = Volume of distribution at steady state in CD-1 mouse at 2 mg/kg, iv; type: ADME, organism-based; conditions: in vivo, read-out: Vdss
[12] = tested on: Kasumi 1; assay: Antitumor activity against human Kasumi-1 cells xenografted in CB17 SCID mouse assessed as tumor volume at 10 mg/kg, po QD for 29 days (reference value: 1734 +/- 220 mm3); type: functional; conditions: time 29 day
[13] = tested on: Kasumi 1; assay: Antitumor activity against human Kasumi-1 cells xenografted in CB17 SCID mouse assessed as tumor weight at 10 mg/kg, po QD for 29 days (reference value: 2.1+/- 0.3 g); type: functional; conditions: time 29 day
[14] = tested on: Kasumi 1; assay: Antitumor activity against human Kasumi-1 cells xenografted in CB17 SCID mouse assessed as inhibition of tumor growth at 10 mg/kg, po QD for 29 days; type: functional; conditions: Kasumi 1, po, 696 h, time 29 day, read-out: TGI
[15] = biological target: T1, Bromodomain-containing protein 4; assay: Inhibition of human full-length recombinant N-terminal His-tagged BRD4 (2 to 1362 residues) expressed in Sf9 cells using histone H4 peptide containing acetylated lysine residues as substrate preincubated with enzyme for 30 mins followed by incubation with substrate for 30 mins by Alphascreen assay […]
[16] = tested on: Mus musculus; assay: Antiarthritic activity in collagen/complete freund's adjuvant-induced arthritis DBA/1 mouse model assessed as paw thickness at 1 mg/kg, po administered via gavage starting from day 21 to day 41 post collagen/CFA challenge and measured on day 21 by caliper analysis (reference value: 2.48 millimeter); type: functional; conditions: time 21 day
[17] = Toxicity in collagen/CFA induced arthritis DBA/1 mouse model assessed as body weight loss at 1 mg/kg, po administered via gavage starting from day 21 to day 41 post collagen/CFA challenge and measured on day 0, 18, 21 followed by three times weekly up to 42 days; type: organism-based; conditions: in vivo, 504 h, time 21 day
[18] = tested on: Mus musculus; assay: (§1) Antiinflammatory activity in collagen/complete freund's adjuvant-induced arthritis DBA/1 mouse model assessed as IL-1 beta level in rear right paw at 1 mg/kg, po administered via gavage starting from day 21 to day 41 post collagen/CFA challenge and measured on day 42 measured per mg protein (reference value: 3.15 pg); type: functional; conditions: time 21 day
[19] = tested on: Mus musculus; assay: as §1, with “IL-2” for “IL-1 beta”, “0.2” for “3.15”; type: functional; conditions: time 21 day
[20] = tested on: Mus musculus; assay: as §1, with “IL-6” for “IL-1 beta”, “180.7” for “3.15”; type: functional; conditions: time 21 day
[21] = tested on: Mus musculus; assay: as §1, with “IP-10” for “IL-1 beta”, “6.23” for “3.15”; type: functional; conditions: time 21 day
[22] = tested on: Mus musculus; assay: as §1, with “MCP-1” for “IL-1 beta”, “126.24” for “3.15”; type: functional; conditions: time 21 day
[23] = tested on: Mus musculus; assay: as §1, with “TNF-alpha” for “IL-1 beta”, “0.88” for “3.15”; type: functional; conditions: time 21 day
[24] = tested on: Mus musculus; assay: as §1, with “IFN-gamma” for “IL-1 beta”, “0.78” for “3.15”; type: functional; conditions: time 21 day
[25] = tested on: Mus musculus; assay: as §1, with “VEGF” for “IL-1 beta”, “0.98” for “3.15”; type: functional; conditions: time 21 day
[26] = Toxicity in collagen/CFA induced arthritis DBA/1 mouse model assessed as body weight at 1 mg/kg, po administered via gavage starting from day 21 to day 41 post collagen/CFA challenge and measured on day 21 relative to initial weight (reference value: 94.96%); type: organism-based; conditions: in vivo, 504 h, time 21 day
[27] = tested on: Kasumi 1; assay: Antitumor activity against human Kasumi-1 cells xenografted in CB17 SCID mouse assessed as inhibition of tumor growth at 10 mg/kg, po QD for 25 days; type: functional; conditions: Kasumi 1, po, 600 h, time 25 day, read-out: TGI
[28] = tested on: Kasumi 1; assay: Antitumor activity against human Kasumi-1 cells xenografted in CB17 SCID mouse assessed as tumor volume at 40 mg/kg, po QD for 25 days (reference value: 2189 +/- 604 mm3); type: functional; conditions: time 25 day
[29] = tested on: Kasumi 1; assay: Antitumor activity against human Kasumi-1 cells xenografted in CB17 SCID mouse assessed as tumor weight at 40 mg/kg, po QD for 25 days (reference value: 2.57 +/-0.27 g); type: functional; conditions: time 25 day
[30] = tested on: Kasumi 1; assay: Antitumor activity against human Kasumi-1 cells xenografted in CB17 SCID mouse assessed as inhibition of tumor growth at 40 mg/kg, po QD for 25 days; type: functional; conditions: Kasumi 1, po, 600 h, time 25 day, read-out: TGI
[31] = tested on: Kasumi 1; assay: Antitumor activity against human Kasumi-1 cells xenografted in CB17 SCID mouse assessed as tumor weight at 10 mg/kg, po administered for 25 days (reference value: 2.57 +/- 0.27 g); type: functional; conditions: time 25 day
[32] = Stability in mouse liver microsomes assessed as half life; type: ADME, Microsome
[33] = Stability in rat liver microsomes assessed as half life; type: ADME, Microsome
[34] = Stability in human liver microsomes assessed as half life; type: ADME, Microsome
[35] = tested on: Kasumi 1; assay: Antitumor activity against human Kasumi-1 cells xenografted in CB17 SCID mouse assessed as tumor volume at 10 mg/kg, po QD for 25 days (reference value: 2189 +/- 604 mm3); type: functional; conditions: time 25 day
[36] = Toxicity in CB17 SCID mouse xenografted with human Kasumi-1 cells assessed body weight loss at 10 to 40 mg/kg, po QD for 25 days; type: organism-based; conditions: in vivo, 600 h, dose 10-40 mg/kg, time 25 day
[37] = Drug uptake in tumor tissue of CB17 SCID mouse xenografted with human Kasumi-1 cells at 10 mg/kg, po QD for 25 days and measured after 24 hrs post last dose; type: ADME, organism-based, Neoplasm; conditions: time 25 day, read-out: Drug uptake
[38] = Drug uptake in tumor tissue of CB17 SCID mouse xenografted with human Kasumi-1 cells at 40 mg/kg, po QD for 25 days and measured after 24 hrs post last dose; type: ADME, organism-based, Neoplasm; conditions: time 25 day, read-out: Drug uptake
[39] = tested on: Kasumi 1; assay: Antiproliferative activity against human Kasumi-1 cells after 72 hrs by Celltiter-Glo assay; type: functional, cell-based; conditions: Kasumi 1, 72 h
[40] = Toxicity in CB17 SCID mouse xenografted with human Kasumi-1 cells assessed body weight loss at 40 mg/kg, po QD for 25 days; type: organism-based; conditions: in vivo, 600 h, time 25 day

| SMILES | clearance [1] [mL/min/kg] | bioavailability [2] [%] | Kd [3] [nM] | half-life [5] [h] | half-life [6] [h] | Cmax ([7]; CD-1, mouse, read-out: Cmax) [ng/mL] | Cmax [8] [ng/mL] | AUC(0-inf) [9] [ng·h/mL] | AUC(0-inf) [10] [ng·h/mL] | Vd [11] [L/kg] | IC50 [15] [nM] | IC50 [4] [nM] | Activity [12] [mm3] | Activity [13] [g] | inhibition in vivo at 10 mg/kg [14] [%] | Activity [28] [mm3] | Activity [29] [g] | Activity [31] [g] | Activity [35] [mm3] | concentration at 600 h [38] [ng/g] | further results |
| --- | --- | --- | --- | --- | --- | --- | --- | --- | --- | --- | --- | --- | --- | --- | --- | --- | --- | --- | --- | --- | --- |
| C[C@@H]1C[C@H]2[C@@H]3CCC4=CC(=O)C=C[C@]4(C)[C@@]3(F)[C@@H](O)C[C@]2(C)[C@@]1(O)C(=O)CO [DEXAMETHASONE] | – | – | – | – | – | – | – | – | – | – | – | – | – | – | – | – | – | – | – | – | Activity [16]: 1.53 mm; Activity [17]: Toxic; Activity [18]: 2.32 pg; Activity [19]: 0.63 pg; Activity [20]: 2.17 pg; Activity [21]: 0.86 pg; Activity [22]: 1.99 pg; Activity [23]: 0.39 pg; Activity [24]: 1.5 pg; Activity [25]: 0.85 pg; Activity [26]: 92.74% |
| CCNC(=O)C[C@@H]1N=C(c2ccc(Cl)cc2)c2cc(OC)ccc2-n2c(C)nnc21 [MOLIBRESIB] | – | – | – | – | – | – | – | – | – | – | – | – | 330 | 0.3 | – | 79 | 0.07 | 0.52 | 586 | 16 | Activity [40]: Toxic |

Second part, led by results:

| clearance [1] [mL/min/kg] | bioavailability [2] [%] | Kd [3] [nM] | half-life [5] [h] | half-life [6] [h] | Cmax ([7]; CD-1, mouse, read-out: Cmax) [ng/mL] | Cmax [8] [ng/mL] | AUC(0-inf) [9] [ng·h/mL] | AUC(0-inf) [10] [ng·h/mL] | Vd [11] [L/kg] | IC50 [15] [nM] | SMILES | IC50 [4] [nM] | Activity [12] [mm3] | Activity [13] [g] | inhibition in vivo at 10 mg/kg [14] [%] | Activity [28] [mm3] | Activity [29] [g] | Activity [31] [g] | Activity [35] [mm3] | concentration at 600 h [38] [ng/g] | further results |
| --- | --- | --- | --- | --- | --- | --- | --- | --- | --- | --- | --- | --- | --- | --- | --- | --- | --- | --- | --- | --- | --- |
| 3.8 | 85 | 23 | 2.1 | 2.7 | 2450 | 2870 | 9330 | 39800 | 0.89 | 11 | Cc1cc(-c2ccc3nc(-c4cnn(CC(C)(C)O)c4)nc(N4CCOC[C@@H]4c4ccccc4)c3c2)cn(C)c1=O | 240 | 588 | 0.73 | 65.1 | – | – | – | – | – | – |
| 10.1 | – | 230 | 1.5 | 1.8 | – | 2040 | 3370 | – | 1.28 | 76 | Cc1noc(C)c1-c1ccc2nc(-c3cnn(CC(C)(C)O)c3)nc(N3CCOC[C@@H]3C3CC3)c2c1 | 1660 | – | – | – | 51 | 0.03 | 1.31 | 1001 | 4210 | inhibition in vivo at 10 mg/kg [27]: 49.1%; inhibition in vivo at 40 mg/kg [30]: 98.8%; Cmax ([7]; mouse, 5 min): 1940 ng/mL; AUC ([10]; mouse): 15013 ng·h/mL; t1/2 [32]: 1.7 h; half-life [33]: 0.55 h; half-life [34]: 1.77 h; Activity [36]: Non-Toxic; concentration at 600 h [37]: 303 ng/g; IC50 [39]: 520 nM |
| 4.5 | 123 | 20 | 2.6 | 4.2 | 2260 | 3180 | 7400 | 45700 | 1.08 | 6 | Cc1cc(-c2ccc3nc(-c4cnn(CC(C)(C)O)c4)nc(N4CCOC[C@@H]4c4ccc(F)cc4)c3c2)cn(C)c1=O | – | 977 | 1.24 | 41 | – | – | – | – | – | – |
